Columns and labels:
Type in all cases: cell-based
Settings in all cases: 48 h
LNCaP cells = assay: MTT cytotoxicity assay, LNCaP (p53 pos)
Procedure: (§1) The synthesized compounds were tested for their ability to block the proliferation of the selected model cell lines: LNCaP (p53+), PC3 (p53-), HCT^wt (p53+), and HCT^−/− (p53-) cells. The assay was carried out using the standard MTT (3-(4,5-dimethylthiazol-2-yl)2,5-diphenyl tetrazolium bromide) assay based on the modified approach reported by Ferrari and colleagues. […] Differences in IC50 values against these cell lines were used to assess the selectivity of the compounds.
(§2) Model cell lines were purchased from the in stock collection of the N.N. Blokhin Russian Cancer Research Center (RAMS). Cells were accurately maintained in the recommended media, supplemented with 10% heat-inactivated FBS (Invitrogen) and 2 mmol/L L-glutamine (Invitrogen).
(§3) First, 4000 cells per well were plated out in 140 µL of DMEM (with 10% FBS) in 96-well plates and incubated in 5% CO2 for 24 h at 37 °C without treatment. […] The cells were treated for 48 h with […] (eight dilutions) concentrations of the substances (each in triplicate) or doxorubicin (0.3 nM–600 nM, eight dilutions) as a control substance. After the incubation, 15 µL of MTT solution in PBS (5 mg/mL) was added, and the cells were incubated for 2 h, followed by removal of the media and addition of 120 µL of DMSO. […] Cell survival rates were determined by the comparison of optical density with the corresponding untreated control cell culture. Dose-dependent curves and the corresponding IC50 values were calculated using “GraphPad Prism 6” software (GraphPad Software, Inc., San Diego, CA, USA).

HCT^wt cells = assay: MTT cytotoxicity assay, HCT^wt (p53 pos)
Procedure: as §1, §2, §3

PC3 cells = assay: MTT cytotoxicity assay, PC3 (p53 neg)
Procedure: as §1, §2, §3

HCT^−/− cells = assay: MTT cytotoxicity assay, HCT^−/− (p53 neg)
Procedure: as §1, §2, §3

| Structure (SMILES) | IC50 (LNCaP cells) [µM] | IC50 (HCT^wt cells) [µM] | IC50 (PC3 cells) [µM] | IC50 (HCT^−/− cells) [µM] |
| --- | --- | --- | --- | --- |
| CN1CC(c2ccccc2Cl)C2(NC(=S)N(c3ccc(O)cc3)C2=O)C12C(=O)Nc1ccc(Br)cc12 (centres unmarked) [Compound 54, 1-(4-hydroxyphenyl)-4’-(2-chlorophenyl)-1’-methyl-5’’’-bromo-2-thiooxodispiro[imidazolidine-4,3’-pyrrolidine-2’,3”-indoline]-2”,5-dione] | 9.5 ± 2.5 | > 100 | 20 ± 8.4 | > 100 |
| C=CCN1C(=O)[C@]2(NC1=S)[C@@H](c1ccccn1)CN(C)[C@@]21C(=O)Nc2ccccc21 (racemic) [Compound 67] | > 50 | – | > 50 | – |
| CN1C[C@H](c2ccc(Cl)c(Cl)c2)[C@]2(NC(=S)N(c3ccccc3)C2=O)[C@]12C(=O)Nc1ccc(Br)cc12 (racemic) [Compound 16] | > 100 | 7.6 ± 1.6 | > 100 | 8.8 ± 3.5 |
| CN1C[C@H](c2ccccn2)[C@]2(NC(=S)N(c3ccccc3)C2=O)[C@]12C(=O)Nc1ccc(Cl)cc12 (racemic) [Compound 18] | 2.1 ± 0.3 | 60.1 ± 8.6 | 8.2 ± 3.5 | > 100 |
| COc1ccc([C@H]2CN(C)[C@@]3(C(=O)Nc4ccc(Br)cc43)[C@@]23NC(=S)N(c2ccc(O)cc2)C3=O)cc1OC (racemic) [Compound 56] | 9 ± 2 | > 100 | 30 ± 10.5 | > 100 |
| CN1C[C@H](c2cccc(C=O)c2)[C@]2(NC(=S)N(c3ccccc3)C2=O)[C@]12C(=O)Nc1ccc(Cl)cc12 (racemic) [Compound 24] | > 100 | > 100 | > 100 | > 100 |
| CN1C[C@H](c2ccccc2Br)[C@]2(NC(=S)N(c3ccccc3)C2=O)[C@]12C(=O)Nc1ccccc12 (racemic) [Compound 8] | > 100 | > 100 | > 100 | > 100 |
| CCOc1ccc(N2C(=O)[C@]3(NC2=S)[C@@H](c2ccc(F)cc2)CN(C)[C@@]32C(=O)Nc3ccccc32)cc1 (racemic) [Compound 30] | > 100 | > 100 | > 100 | > 100 |
| CN1C[C@H](c2ccccc2Cl)[C@]2(NC(=S)N(c3ccccc3)C2=O)[C@]12C(=O)Nc1ccc(Br)cc12 (racemic) [Compound 10] | > 100 | – | > 100 | – |
| COc1ccc([C@H]2CN(C)[C@@]3(C(=O)Nc4ccc(Cl)cc43)[C@@]23NC(=S)N(c2ccc(O)cc2)C3=O)cc1OC (racemic) [Compound 57] | 17 ± 1 | > 100 | 20 ± 6.9 | > 100 |
| CN1C[C@H](c2ccc(F)cc2)[C@]2(NC(=S)N(c3ccc(Cl)cc3)C2=O)[C@]12C(=O)Nc1ccccc12 (racemic) [Compound 38] | > 100 | > 100 | > 100 | > 100 |
| CCOc1ccc(N2C(=O)[C@]3(NC2=S)[C@@H](c2ccc(Cl)cc2)CN(C)[C@@]32C(=O)Nc3ccccc32)cc1 (racemic) [Compound 28] | > 100 | > 100 | > 100 | > 100 |
| CCc1ccc([C@H]2CN(C)[C@@]3(C(=O)Nc4ccccc43)[C@@]23NC(=S)N(c2ccc(F)c(Cl)c2)C3=O)cc1 (racemic) [Compound 46] | > 100 | 6.3 ± 2.5 | > 100 | 6.5 ± 3.6 |
| CC(c1ccccc1)N1C(=O)C2(NC1=S)C(c1ccc(Cl)cc1)CN(C)C21C(=O)Nc2ccc(Cl)cc21 (mixture of isomers) [Compound 66] | > 100 | > 100 | > 100 | > 100 |
| CN1C[C@H](c2ccccc2Cl)[C@]2(NC(=S)N(c3ccccc3)C2=O)[C@]12C(=O)Nc1ccc(Cl)cc12 (racemic) [Compound 11] | > 100 | > 100 | > 100 | > 100 |
| CN1C[C@H](c2ccncc2)[C@]2(NC(=S)N(c3ccccc3)C2=O)[C@]12C(=O)Nc1ccccc12 (racemic) [Compound 19] | > 100 | > 100 | > 100 | > 100 |
| CC(c1ccccc1)N1C(=O)C2(NC1=S)C(c1ccccc1Cl)CN(C)C21C(=O)Nc2ccc(Br)cc21 (mixture of isomers) [Compound 62] | > 100 | > 100 | > 100 | > 100 |
| COc1ccc(N2C(=O)[C@]3(NC2=S)[C@@H](c2cccc(Cl)c2)CN(C)[C@@]32C(=O)Nc3ccc(Br)cc32)cc1 (racemic) [Compound 33] | > 100 | > 100 | > 100 | > 100 |
| CN1CC(c2ccc(Cl)cc2)C2(NC(=S)N(c3ccc(O)cc3)C2=O)C12C(=O)Nc1ccc(Br)cc12 (centres unmarked) [Compound 51, 1-(4-hydroxyphenyl)-4’-(4-chlorophenyl)-1’-methyl-5’’’-bromo-2-thiooxodispiro[imidazolidine-4,3’-pyrrolidine-2’,3”-indoline]-2”,5-dione] | > 100 | > 100 | > 100 | > 100 |
| COc1ccc([C@H]2CN(C)[C@@]3(C(=O)Nc4ccc(Br)cc43)[C@@]23NC(=S)N(c2ccc(F)c(Cl)c2)C3=O)cc1OC (racemic) [Compound 45] | > 100 | – | > 100 | – |
| CC(c1ccccc1)N1C(=O)C2(NC1=S)C(c1cccc(Cl)c1)CN(C)C21C(=O)Nc2ccc(Br)cc21 (mixture of isomers) [Compound 63] | 3.4 ± 1.5 | 8 ± 2.5 | 8.8 ± 3.1 | > 100 |
| CN1C[C@H](c2cccc(Cl)c2)[C@]2(NC(=S)N(c3ccccc3)C2=O)[C@]12C(=O)Nc1ccccc12 (racemic) [Compound 14] | > 100 | – | > 100 | – |
| CCOc1ccc([C@H]2CN(C)[C@@]3(C(=O)Nc4ccc(Br)cc43)[C@@]23NC(=S)N(c2ccc(F)cc2)C3=O)cc1 (racemic) [Compound 61] | > 100 | – | > 100 | – |
| CN1C[C@H](c2cccc(Cl)c2)[C@]2(NC(=S)N(c3ccccc3)C2=O)[C@]12C(=O)Nc1ccc(Br)cc12 (racemic) [Compound 15] | > 100 | > 100 | > 100 | > 100 |
| COc1ccc(N2C(=O)[C@]3(NC2=S)[C@@H](c2cccc(Cl)c2)CN(C)[C@@]32C(=O)Nc3ccc(Br)cc32)cc1Cl (racemic) [Compound 59] | > 50 | – | > 50 | – |
| COc1ccc(N2C(=O)[C@]3(NC2=S)[C@@H](c2cccc(Cl)c2)CN(C)[C@@]32C(=O)Nc3ccccc32)cc1Cl (racemic) [Compound 58] | > 100 | – | > 100 | – |
| CN1C[C@H](C2CCCCC2)[C@]2(NC(=S)N(c3ccccc3)C2=O)[C@]12C(=O)Nc1ccccc12 (racemic) [Compound 25] | > 100 | – | > 100 | – |
| CN1C[C@H](C2CCCCC2)[C@]2(NC(=S)N(c3ccccc3)C2=O)[C@]12C(=O)Nc1ccc(Br)cc12 (racemic) [Compound 26] | > 100 | – | > 100 | – |
| C=CCN1C(=O)[C@]2(NC1=S)[C@@H](c1cccc(Cl)c1)CN(C)[C@@]21C(=O)Nc2ccccc21 (racemic) [Compound 68] | > 50 | – | > 50 | – |
| CCOc1ccc([C@H]2CN(C)[C@@]3(C(=O)Nc4ccccc43)[C@@]23NC(=S)N(c2ccc(F)cc2)C3=O)cc1 (racemic) [Compound 60] | > 100 | – | > 100 | – |
